In patent US20250228882A1, “ORALLY-BIOAVAILABLE NUCLEOSIDE ANALOGS” (Venatorx Pharmaceuticals, Inc., priority 2022, published 2025) one finds Papp A→B, Papp B→A and efflux ratio data, which are given here for 14 molecules.

A short description of the series: Bidirectional Caco-2 permeability assay. The format is in vitro ADME. The settings on record: human. The protocol:
The bidirectional permeability of compounds across the Caco-2 cell monolayer was assessed. The Caco-2 model is a widely used in vitro model for small intestinal absorption and potential for efflux. Cell culture. Caco-2 cells were grown in DMEM supplemented with 10% fetal bovine serum (FBS), 1% Penicillin-Streptomycin and 1% MEMNEAA. The cells were incubated at 37° C., 5% CO2/95% air and saturated humidity. After reaching 80-90% confluency, the cells were gently detached with trypsin. Cells at passage 39 were seeded on the 24-well BD insert system at the density of 8×10^4 cells/cm^2 and cultured for 19 days with medium changed every 2-3 days. Measure the transepithelial electrical resistance (TEER) value of each well. The wells can be used only when their TEER values are greater than 600 Ohms/cm^2.
Transport assay. After removing the cell culture medium from the 24-well insert plate, the cells were rinsed with warm transport buffer. Appropriate dosing and receiving solutions were applied to the donor and receiver chambers to initiate the transport assay in apical to basolateral (A to B) or basolateral to apical (B to A) directions (500 and 1300 μL for apical and basolateral wells, respectively). Duplicate wells in each direction were used for the test compound and control compound. The plate was incubated in CO2 incubator at 37° C., with 5% CO2/95% air and saturated humidity without shaking. The sample after 10-minute incubation was used as the To sample, and the sample after 90-minute incubation was used as the T90 sample. To and T90 samples were collected from the donor and receiver side of each well at the designed timepoint, mixed with the transport buffer and acetonitrile/MeOH (1:1, v/v) and the internal standard for LC/MS/MS analysis. All samples were vortexed and centrifuged at 4000 rpm at 4° C. for 15 minutes, diluted with pure water and stored at 4° C. before bioanalysis by LC/MS/MS.
Sample analysis. The concentrations of test compounds and control compounds in Caco-2 cells were quantitatively determined by LC/MS/MS method after protein precipitation.
Calculations. The apparent permeability (Papp, cm/s), efflux ratio (ER) and recovery parameters were calculated for Caco-2 drug transport assay using the following equations: […]
where VR is the solution volume in the receiver chamber (0.4 mL on the apical side, 1.2 mL on the basolateral side); Area is the surface area for the insert membrane, i.e., 0.3 cm^2 for the area of the monolayer; Time is incubation time, expressed in seconds, i. e., 5400 s (90 min) for the current experiment; Co is the initial concentration of test compound or peak area ratio of control compounds in the donor chamber (M); VD is the volume in the donor chambers (0.4 mL on the apical side, 1.2 mL on the basolateral side); CD and CR are the final concentrations of test compounds or peak area ratio of control compounds in donor and receiver chambers, respectively.
Compounds with Papp<1.0 are classified as low permeability, Papp between 1-10 are classified as medium permeability, and Papp>10 are classified as high permeability. An efflux ratio (ER)>2 indicates the compounds are potential substrates for intestinal cell efflux transporters.

Setting [1] is: Caco-2 monolayer, apical to basolateral, 90-minute incubation, read-out: Papp, A-B.
The mark [2] stands for this setting: Caco-2 monolayer, basolateral to apical, 90-minute incubation, read-out: Papp, B-A.
The mark [3] stands for this setting: Caco-2 monolayer, ER>2 indicates potential efflux substrate, read-out: ER (efflux ratio).

Read-outs that look alike come from different tables or passages of the source.

Regarding `CCCCCCOC(=O)Nc1ncnn2c([C@]3(C#N)O[C@H](COC(=O)[C@@H](N)C(C)(C)C)[C@@H](OC(=O)CC)[C@H]3O)ccc12` [Compound 42, ((2R,3S,4R,5R)-5-cyano-5-(4-(((hexyloxy)carbonyl)amino)pyrrolo[2,1-f][1,2,4]triazin-7-yl)-4-hydroxy-3-(propionyloxy)tetrahydrofuran-2-yl)methyl (S)-2-amino-3,3-dimethylbutanoate], for the setting “Caco-2”, the apparent permeability from apical to basolateral (Papp A→B) at 90 min is 4.24 ×10⁻⁶ cm/s, the Papp B→A at 90 min came out at 3.97 ×10⁻⁶ cm/s and the efflux ratio at 90 min is 0.94.

On to `CCCCCC(=O)Nc1ncnn2c([C@]3(C#N)O[C@H](COC(=O)CC4CCC4)[C@@H](OC(=O)[C@@H](N)C(C)(C)C)[C@H]3O)ccc12` [Compound 48, (2R,3S,4R,5R)-5-cyano-2-((2-cyclobutylacetoxy)methyl)-5-(4-hexanamidopyrrolo[2,1-f][1,2,4]triazin-7-yl)-4-hydroxytetrahydrofuran-3-yl (S)-2-amino-3,3-dimethylbutanoate], for which, where the note is “Caco-2”, the apical-to-basolateral permeability (Papp A→B) at 90 min was found to be 2.02 ×10⁻⁶ cm/s, the apparent permeability from basolateral to apical (Papp B→A) at 90 min worked out at 4.72 ×10⁻⁶ cm/s and the efflux ratio at 90 min stood at 2.34.

`CCCCOC(C)(C)C(=O)Nc1ncnn2c([C@]3(C#N)O[C@H](COC(=O)CC4CCCCC4)[C@@H](OC(=O)[C@H](N)C(C)(C)C)[C@H]3O)ccc12` [Compound 73, (2R,3S,4R,5R)-5-(4-(2-butoxy-2-methylpropanamido)pyrrolo[2,1-f][1,2,4]triazin-7-yl)-5-cyano-2-((2-cyclohexylacetoxy)methyl)-4-hydroxytetrahydrofuran-3-yl (R)-2-amino-3,3-dimethylbutanoate]: where the note is “Caco-2”, the Papp A→B at 90 min was found to be 0.24 ×10⁻⁶ cm/s, the Papp B→A at 90 min was 0.53 ×10⁻⁶ cm/s and the efflux ratio at 90 min stood at 2.23.

With `CC(C)[C@@H](C)C(=O)Nc1ncnn2c([C@]3(C#N)O[C@H](COC(=O)Cc4ccccc4)[C@@H](OC(=O)[C@@H](N)C(C)(C)C)[C@H]3O)ccc12` [Compound 21, (2R,3S,4R,5R)-5-cyano-5-(4-((R)-2,3-dimethylbutanamido)pyrrolo[2,1-f][1,2,4]triazin-7-yl)-4-hydroxy-2-((2-phenylacetoxy)methyl)tetrahydrofuran-3-yl (S)-2-amino-3,3-dimethylbutanoate], the apparent permeability from apical to basolateral (Papp A→B) at 90 min under setting [1] was found to be 3.1 ×10⁻⁶ cm/s. Further, the basolateral-to-apical permeability (Papp B→A) at 90 min under setting [2] came to 21 ×10⁻⁶ cm/s. Further, under setting [3], the efflux ratio at 90 min worked out at 6.77.

Regarding `CCOC(C)(C)C(=O)Nc1ncnn2c([C@]3(C#N)O[C@H](COC(=O)Cc4ccccc4)[C@@H](OC(=O)[C@@H](N)C(C)(C)C)[C@H]3O)ccc12` [Compound 6, (2R,3S,4R,5R)-5-cyano-5-(4-(2-ethoxy-2-methylpropanamido)pyrrolo[2,1-f][1,2,4]triazin-7-yl)-4-hydroxy-2-((2-phenylacetoxy)methyl)tetrahydrofuran-3-yl (S)-2-amino-3,3-dimethylbutanoate], the apparent permeability from apical to basolateral (Papp A→B) at 90 min under setting [1] was determined as 14 ×10⁻⁶ cm/s. Further, under setting [2], the apparent permeability from basolateral to apical (Papp B→A) at 90 min came out at 15.4 ×10⁻⁶ cm/s. The efflux ratio at 90 min under setting [3] turned out to be 1.1.

On to `CCCCOC(C)(C)C(=O)Nc1ncnn2c([C@]3(C#N)O[C@H](COC(=O)CC4CCCCCC4)[C@@H](OC(=O)[C@H](N)C(C)(C)C)[C@H]3O)ccc12` [Compound 75, (2R,3S,4R,5R)-5-(4-(2-butoxy-2-methylpropanamido)pyrrolo[2,1-f][1,2,4]triazin-7-yl)-5-cyano-2-((2-cycloheptylacetoxy)methyl)-4-hydroxytetrahydrofuran-3-yl(R)-2-amino-3,3-dimethylbutanoate], for which, where the note is “Caco-2”, the apical-to-basolateral permeability (Papp A→B) at 90 min was 0.22 ×10⁻⁶ cm/s, the apparent permeability from basolateral to apical (Papp B→A) at 90 min is 0.12 ×10⁻⁶ cm/s and the efflux ratio at 90 min was 0.52.

Turning to `CC(=O)OCOC(=O)Nc1ncnn2c([C@]3(C#N)O[C@H](COC(=O)[C@@H](N)C(C)(C)C)[C@@H](OC(=O)CC4CCCCC4)[C@H]3O)ccc12` [Compound 36, ((2R,3S,4R,5R)-5-(4-(((acetoxymethoxy)carbonyl)amino)pyrrolo[2,1-f][1,2,4]triazin-7-yl)-5-cyano-3-(2-cyclohexylacetoxy)-4-hydroxytetrahydrofuran-2-yl)methyl (S)-2-amino-3,3-dimethylbutanoate], under “Caco-2”, the apparent permeability from apical to basolateral (Papp A→B) at 90 min came to 0.93 ×10⁻⁶ cm/s, the Papp B→A at 90 min worked out at 1.15 ×10⁻⁶ cm/s and the efflux ratio at 90 min was found to be 1.24.

Take `CCC(=O)O[C@H]1[C@@H](O)[C@](C#N)(c2ccc3c(NC(=O)OCOC(=O)C(C)(C)C)ncnn23)O[C@@H]1COC(=O)[C@@H](N)C(C)(C)C` [Compound 40, ((2R,3S,4R,5R)-5-cyano-4-hydroxy-5-(4-((((pivaloyloxy)methoxy)carbonyl)amino)pyrrolo[2,1-f][1,2,4]triazin-7-yl)-3-(propionyloxy)tetrahydrofuran-2-yl)methyl (S)-2-amino-3,3-dimethylbutanoate]: under “Caco-2”, the Papp A→B at 90 min was determined as 0.13 ×10⁻⁶ cm/s, the apparent permeability from basolateral to apical (Papp B→A) at 90 min amounted to 4.5 ×10⁻⁶ cm/s and the efflux ratio at 90 min turned out to be 34.4.

With `CC(C)NC(=O)Nc1ncnn2c([C@]3(C#N)O[C@H](COC(=O)CC4CCCCC4)[C@@H](OC(=O)[C@@H](N)C(C)(C)C)[C@H]3O)ccc12` [Compound 4, (2R,3S,4R,5R)-5-cyano-2-((2-cyclohexylacetoxy)methyl)-4-hydroxy-5-(4-(3-isopropylureido)pyrrolo[2,1-f][1,2,4]triazin-7-yl)tetrahydrofuran-3-yl (S)-2-amino-3,3-dimethylbutanoate], for the setting “Caco-2”, the Papp A→B at 90 min came to 2.5 ×10⁻⁶ cm/s, the basolateral-to-apical permeability (Papp B→A) at 90 min came out at 3.48 ×10⁻⁶ cm/s and the efflux ratio at 90 min was found to be 1.37.

Consider `CCCCC(=O)Nc1ncnn2c([C@]3(C#N)O[C@H](COC(=O)CC4CCC4)[C@@H](OC(=O)[C@@H](N)C(C)(C)C)[C@H]3O)ccc12` [Compound 47, (2R,3S,4R,5R)-5-cyano-2-((2-cyclobutylacetoxy)methyl)-4-hydroxy-5-(4-pentanamidopyrrolo[2,1-f][1,2,4]triazin-7-yl)tetrahydrofuran-3-yl (S)-2-amino-3,3-dimethylbutanoate], for which, where the note is “Caco-2”, the Papp A→B at 90 min was 4.57 ×10⁻⁶ cm/s, the apparent permeability from basolateral to apical (Papp B→A) at 90 min turned out to be 12.2 ×10⁻⁶ cm/s and the efflux ratio at 90 min was 2.68.

Turning to `CC[C@@H](C)C(=O)Nc1ncnn2c([C@]3(C#N)O[C@H](COC(=O)CC4CCCCC4)[C@@H](OC(=O)[C@@H](N)C(C)(C)C)[C@H]3O)ccc12` [Compound 12, (2R,3S,4R,5R)-5-cyano-2-((2-cyclohexylacetoxy)methyl)-4-hydroxy-5-(4-((R)-2-methylbutanamido)pyrrolo[2,1-f][1,2,4]triazin-7-yl)tetrahydrofuran-3-yl (S)-2-amino-3,3-dimethylbutanoate], for the setting “Caco-2”, the apical-to-basolateral permeability (Papp A→B) at 90 min turned out to be 3.48 ×10⁻⁶ cm/s, the apparent permeability from basolateral to apical (Papp B→A) at 90 min came to 25.5 ×10⁻⁶ cm/s and the efflux ratio at 90 min is 7.34.

On to `CCCCCCOC(=O)Nc1ncnn2c([C@]3(C#N)O[C@H](COC(=O)[C@@H](N)C(C)(C)C)[C@@H](O)[C@H]3O)ccc12` [Compound 41, ((2R,3S,4R,5R)-5-cyano-5-(4-(((hexyloxy)carbonyl)amino)pyrrolo[2,1-f][1,2,4]triazin-7-yl)-3,4-dihydroxytetrahydrofuran-2-yl)methyl (S)-2-amino-3,3-dimethylbutanoate], for which, under “Caco-2”, the Papp A→B at 90 min was found to be 1.41 ×10⁻⁶ cm/s, the Papp B→A at 90 min stood at 14.6 ×10⁻⁶ cm/s and the efflux ratio at 90 min turned out to be 10.4.

With `CCCCOC(C)(C)C(=O)Nc1ncnn2c([C@]3(C#N)O[C@H](COC(=O)CC4CCCCCC4)[C@@H](OC(=O)[C@@H](N)C(C)(C)C)[C@H]3O)ccc12` [Compound 72, (2R,3S,4R,5R)-5-(4-(2-butoxy-2-methylpropanamido)pyrrolo[2,1-f][1,2,4]triazin-7-yl)-5-cyano-2-((2-cycloheptylacetoxy)methyl)-4-hydroxytetrahydrofuran-3-yl(S)-2-amino-3,3-dimethylbutanoate], for the setting “Caco-2”, the apical-to-basolateral permeability (Papp A→B) at 90 min turned out to be 0.09 ×10⁻⁶ cm/s, the apparent permeability from basolateral to apical (Papp B→A) at 90 min stood at 7.6 ×10⁻⁶ cm/s and the efflux ratio at 90 min worked out at 88.8.

For `CCOC(C)(C)C(=O)Nc1ncnn2c([C@]3(C#N)O[C@H](COC(=O)CC4CCC4)[C@@H](OC(=O)[C@@H](N)C(C)(C)C)[C@H]3O)ccc12` [Compound 49, (2R,3S,4R,5R)-5-cyano-2-((2-cyclobutylacetoxy)methyl)-5-(4-(2-ethoxy-2-methylpropanamido)pyrrolo[2,1-f][1,2,4]triazin-7-yl)-4-hydroxytetrahydrofuran-3-yl (S)-2-amino-3,3-dimethylbutanoate], where the note is “Caco-2”, the Papp A→B at 90 min was determined as 6.24 ×10⁻⁶ cm/s, the apparent permeability from basolateral to apical (Papp B→A) at 90 min worked out at 5.67 ×10⁻⁶ cm/s and the efflux ratio at 90 min amounted to 0.91.

Usually Papp A→B stands for the apparent permeability from the apical to the basolateral side of a cell layer. As usually defined, the Papp B→A is the apparent permeability from the basolateral to the apical side of a cell layer.
